“And” between values parts separate entries of the source, which are not always exact repeats. Equal values may be shown once.
Assays:
Format in all cases: cell-based
KM20L2 = assay: NCI human tumor cell line screen, colon KM20L2; details: for GI-50 / TGI: Human cancer cell; for LC-50: Human cancer cells
Source text: (§1) Current research in the control of cancer in the United States is coordinated by the National Cancer Institute (NCI). To determine whether a substance has anti-cancer properties, the NCI has established a systematic protocol. […] The protocol, and the established statistical means for analyzing the results obtained by the standardized testing are fully described in the literature. See: Body, Dr. Michael R., Principles & Practice of Oncology, PPO Updates, Volume 3, Number 10, October 1989, for an in depth description of the testing protocol; and Paull, K. D., "Display and Analysis of Patterns of Differential Activity of Drugs Against Human Tumor Cell Lines; Development of Mean Graph and COMPARE Algorithm", Journal of the National Cancer Institute Reports, Vol. 81, No. 14, Page 1088, Jul. 14, 1989 for a description of the methods of statistical analysis. Both of these references are incorporated herein by this reference thereto.

A498 = assay: NCI human tumor cell line screen, renal A498; details: for GI-50 / TGI: Human cancer cell; for LC-50: Human cancer cells
Source text: as §1

SK-MEL-3 = assay: NCI human tumor cell line screen, melanoma SK-MEL-3; details: for GI-50 / TGI: Human cancer cell; for LC-50: Human cancer cells
Source text: (§2) Current research in the control of cancer in the United States is coordinated by the National Cancer Institute (NCI). To determine whether a substance has anti-cancer properties, the NCI has established a systematic protocol. This protocol, which involves the testing of a substance against a standard cell line panel containing 60 human tumor cell lines, has been verified and has been accepted in scientific circles. The protocol, and the established statistical means for analyzing the results obtained by the standardized testing are fully described in the literature. See: Body, Dr. Michael R., Principles & Practice of Oncology, PPO Updates, Volume 3, Number 10, October 1989, for an in depth description of the testing protocol; and Paull, K. D., "Display and Analysis of Patterns of Differential Activity of Drugs Against Human Tumor Cell Lines; Development of Mean Graph and COMPARE Algorithm", Journal of the National Cancer Institute Reports, Vol. 81, No. 14, Page 1088, Jul. 14, 1989 for a description of the methods of statistical analysis. Both of these references are incorporated herein by this reference thereto.
(§3) The extraordinary inhibition of cell growth shown by the tetrapeptide 6a-k against six major types of human cancer and against the murine P388 lymphocytic leukemia cell line has been presented in Table 1-2, below.

NCI-460 = assay: NCI human tumor cell line screen, Lung-NSC NCI-460; details: for GI-50 / TGI: Human cancer cell; for LC-50: Human cancer cells
Source text: as §1

SF-295 = assay: NCI human tumor cell line screen, CNS SF-295; details: for GI-50 / TGI: Human cancer cell; for LC-50: Human cancer cells
Source text: as §2, §3

P-388 = assay: Murine P388 lymphocytic leukemia cell growth inhibition; details: Mouse leukemia cell P-388
Source text: as §3

OVCAR-3 = assay: NCI human tumor cell line screen, ovarian OVCAR-3; details: for GI-50 / TGI: Human cancer cell; for LC-50: Human cancer cells
Source text: as §1

Substance	GI-50 (KM20L2) [µg/mL]	TGI (KM20L2) [ng/mL]	LC-50 (KM20L2) [µg/mL]	GI-50 (A498) [µg/mL]	TGI (A498)	LC-50 (A498) [µg/mL]	GI-50 (SK-MEL-3) [µg/mL]	TGI (SK-MEL-3) [ng/mL]	LC-50 (SK-MEL-3) [µg/mL]	GI-50 (NCI-460) [µg/mL]	TGI (NCI-460) [ng/mL]	LC-50 (NCI-460) [µg/mL]	GI-50 (SF-295)	TGI (SF-295) [ng/mL]	LC-50 (SF-295) [µg/mL]	ED-50 (P-388) [µg/mL]	GI-50 (OVCAR-3) [µg/mL]	TGI (OVCAR-3) [ng/mL]	LC-50 (OVCAR-3) [µg/mL]
[2S-[1[1R*(R*),2S],2R*[1S*,2S*]]]-N,N-dimethyl-L-valyl-N-[2-methoxy-4-[2-[1-methoxy-2-methyl-3-oxo-3-[[2-(3,4-dimethoxy-phenyl)-ethyl]amino]propyl]-1- pyrrolidinyl-1-(methylpropyl)-4-oxobutyl]-N-methyl-L-valineamide [Peptide 6a]	0.000025	0.061	> 0.0001	0.000016	> 0.1 ng/mL	> 0.0001	0.000018	0.058	> 0.0001	0.000031	0.094	> 0.0001	0.000029 µg/mL	0.083	> 0.0001	0.0035	0.000007	0.061	> 0.0001
[2S-[1[1R*(R*),2S*],2R*[1S*,2S*]]]-N,N-dimethyl-L-valyl-N-[2-methoxy-4-[2- [1-methoxy-2-methyl-3-oxo-3-[[2-(3-chlor-phenyl)-ethyl]amino]propyl]-1-pyrrolidinyl-1-(methylpropyl)-4-oxo butyl]-N-methyl-L-valineamide [Peptide 6f]	0.0000007	1.7	> 0.01	< 0.000001	1.7 ng/mL	> 0.01	< 0.000001	> 10	> 0.01	< 0.000001	0.1	> 0.01	0.000028 µg/mL	> 10	> 0.01	0.00225	< 0.000001	< 0.001	0.00076
[2S-[1[1R*(R*),2S*],2R*[1S*,2S*]]]-N,N-dimethyl-L-valyl-N-[2-methoxy-4-[2-[1-methoxy-2-methyl-3-oxo-3-[[2-(2-chlor-phenyl)-ethyl]amino]propyl]-1-pyrrolidinyl-1-(methylpropyl)-4-oxo butyl]-N-methyl-L-valineamide [Peptide 6g]	< 0.000001	0.38	> 0.01	< 0.000001	2 ng/mL	> 0.01	< 0.000001	> 10	> 0.01	< 0.000001	0.11	> 0.01	< 0.000001 µg/mL	> 10	> 0.01	0.000289	< 0.000001	< 0.001	> 0.01
[2S-[1[1R*(R*),2S*],2R*[1S*,2S*]]]-N,N-dimethyl-L-valyl-N-[2-methoxy-4-[2-[1-methoxy-2-methyl-3-oxo-3-[[2-(4-nitro-phenyl)-ethyl]amino]propyl]-1-pyrrolidinyl-1-(methylpropyl)-4-oxo butyl]-N-methyl-L-valineamide [Peptide 6b]	0.0003	1.3	> 0.01	0.00064	> 10 ng/mL	> 0.01	0.00012	1.3	> 0.01	0.00028	1.2	> 0.01	0.00035 µg/mL	> 10	> 0.01	0.0459	0.00024	0.65	> 0.01
[2S-[1[1R*(R*),2S*],2R*[1S*,2S*,3(1S*, 2S*)]]]-N,N-dimethyl-L-valyl-N-[2-methoxy-4-[2-[1-methoxy-2- methyl-3-oxo-3-[[1-phenyl-1-hydroxy-2-propyl]methylamino]propyl]- 1-pyrrolidinyl-1-(methylpropyl)-4-oxobutyl]-N-methyl-L-valineamide valineamide [Peptide 6h]	–	0.52	> 0.01	–	> 10 ng/mL and 9.7 ng/mL	> 0.01	–	> 10	> 0.01	0.00006	0.11	> 0.01	0.00031 µg/mL and 0.00034 µg/mL	> 10	> 0.01	–	–	–	> 0.01
[2S-[1[1R*(R*),2S*],2R*[1S*,2S*, 3(1S*, 2R*)]]]-N,N-dimethyl-L-valyl-N-[2-methoxy-4-[2-[1-methoxy-2-methyl-3-oxo-3-[[1-phenyl-1-hydroxy-2-propyl]amino]propyl]-1-pyrrolidinyl-1-(methylpropyl)-4-oxobutyl]-N-methyl-L-valine amide [Peptide 6k]	0.00029	1.3	> 0.01	0.00075	> 10 ng/mL	> 0.01	0.00058	> 10	> 0.01	0.0003	1	> 0.01	0.0006 µg/mL	> 10	> 0.01	0.000434	0.00017	0.53	> 0.01
[2S-[1[1R*(R*),2S*],2R*[1S*,2S*, 3(1R*, 2S*)]]]-N,N-dimethyl-L-valyl-N-[2-methoxy-4-[2-[1-methoxy-2- methyl-3-oxo-3-[[1-phenyl-1-hydroxy-2-propyl]amino]propyl]-1-pyrrolidinyl- 1-(methylpropyl)-4-oxobutyl]-N-methyl-L-valine amide [Peptide 6i]	0.00011	7	> 0.01	0.0000027	0.0086 ng/mL	0.00029	0.00058	> 10	> 0.01	0.000025	> 10	> 0.01	0.000016 µg/mL	0.24	> 0.01	0.000503	0.000021	0.042	0.000088
[2S-[1 [1R*(R*),2S*],2R*[1S*, 2S*]]]-N,N-dimethyl-L-valyl-N-[2-methoxy-4-[2-[1-methoxy-2-methyl-3-oxo-3- [[2-(4-chlor-phenyl)-etthyl]amino]propyl]-1-pyrrolidinyl-1-(methylpropyl)-4-oxo butyl]-N-methyl-L-valineamide [Peptide 6d]	0.00033	2.9	> 0.0001	0.000059	2.8 ng/mL	> 0.0001	0.000044	> 10	> 0.0001	0.000025	0.14	> 0.0001	0.000046 µg/mL	> 10	> 0.0001	0.00372	0.000016	0.05	0.00096

Source: patent US5635483A, “Tumor inhibiting tetrapeptide bearing modified phenethyl amides” (priority 1992, dated 1997)
